From ChEMBL document CHEMBL1130777, “L-374,087, an efficacious, orally bioavailable, pyridinone acetamide thrombin inhibitor” (Bioorg Med Chem Lett, 1998)

Key:
Prothrombin = Prothrombin (Homo sapiens, UniProt P00734); test: Binding affinity towards thrombin was evaluated
Serine protease 1 = Serine protease 1 (Homo sapiens, UniProt P07477); test: Binding affinity towards trypsin was evaluated
[1] = Compound was evaluated for the half life period after iv administration in cynomolgus monkey; assay type: ADME, organism-based; settings: cercopithecidae, in vivo
[2] = Oral bioavailability after 5 mg/kg in cynomolgus monkey was determined; assay type: ADME, organism-based; settings: cercopithecidae, in vivo, read-out: Bioavailabiility
[3] = Compound was evaluated for the oral bioavailability after oral administration in dog.; assay type: ADME, organism-based, Canis lupus familiaris; settings: in vivo, read-out: Bioavailabiility
[4] = Maximum concentration was evaluated after 75 min after administration in dog; assay type: ADME, organism-based, Canis lupus familiaris; settings: in vivo
[5] = Compound was evaluated for the half life period after iv administration in Beagle dog.; assay type: ADME, organism-based, Canis lupus familiaris; settings: in vivo
Rattus norvegicus [6] = test: Incidence of occlusion was determined in the rat ferric chloride arterial thrombosis model at 10 dose ug/kg/min after intravenous administration; 0/9; assay type: functional
Rattus norvegicus [7] = test: Incidence of occlusion was determined in the rat ferric chloride arterial thrombosis model at 3 dose ug/kg/min after intravenous administration; 2/6; assay type: functional
Rattus norvegicus [8] = test: Incidence of occlusion was determined in the rat ferric chloride arterial thrombosis model at 5 dose ug/kg/min after intravenous administration; 1/6; assay type: functional
Rattus norvegicus [9] = test: Incidence of occlusion was determined in the rat ferric chloride arterial thrombosis model at 1 dose ug/kg/min after intravenous administration; 5/6; assay type: functional

Chain of Serine protease 1 (P07477 whole entry): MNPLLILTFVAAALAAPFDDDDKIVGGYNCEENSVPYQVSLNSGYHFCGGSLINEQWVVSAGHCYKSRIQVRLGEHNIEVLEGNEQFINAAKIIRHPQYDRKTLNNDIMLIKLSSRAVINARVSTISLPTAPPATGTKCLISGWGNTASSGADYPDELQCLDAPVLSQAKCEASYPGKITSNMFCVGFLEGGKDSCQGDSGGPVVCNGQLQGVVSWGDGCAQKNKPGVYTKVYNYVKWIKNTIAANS

| Ki (Prothrombin) [nM] | Ki (Serine protease 1) [nM] | SMILES | other results |
| --- | --- | --- | --- |
| 0.33 | 2100 | Cc1cc(N)nc(C)c1CNC(=O)Cn1c(C)ccc(NS(=O)(=O)Cc2ccccc2)c1=O | – |
| 12 | 1500 | Cc1cc(N)ncc1CNC(=O)Cn1c(C)ccc(NS(=O)(=O)Cc2ccccc2)c1=O | – |
| 11 | 3000 | Cc1ccc(NS(=O)(=O)Cc2ccccc2)c(=O)n1CC(=O)NCc1ccc(N)nc1 | – |
| 26 | 20000 | Cc1nc(N)ccc1CNC(=O)Cn1cccc(NS(=O)(=O)Cc2ccccc2)c1=O | – |
| – | – | Cc1nc(N)ccc1CNC(=O)Cn1c(C)ccc(NS(=O)(=O)Cc2ccccc2)c1=O.Cl | half-life [1]: 2.42 h; bioavailability [2]: 19%; bioavailability [3]: 44%; Cmax [4]: 990 nM; half-life [5]: 1.5 h |
| – | – | Cc1nc(N)ccc1CNC(=O)Cn1c(C)ccc(NS(=O)(=O)Cc2ccccc2)c1=O [L-374087] | Incidence of occlusion (Rattus norvegicus [6]): 0; Incidence of occlusion (Rattus norvegicus [7]): 2; Incidence of occlusion (Rattus norvegicus [8]): 1; Incidence of occlusion (Rattus norvegicus [9]): 5 |

| SMILES | Ki (Prothrombin) [nM] | Ki (Serine protease 1) [nM] | other results |
| --- | --- | --- | --- |
| Cc1nc(N)ccc1CNC(=O)Cn1c(C)ccc(NCCc2ccccc2)c1=O | 2.3 | 4300 | – |
